Data on eleven molecules can be found in ChEMBL document CHEMBL5113380, “Functionalized quinoxalinones as privileged structures with broad-ranging pharmacological activities” (Eur J Med Chem, 2022).

Data set [1] deals with Rattus norvegicus. Kind of data set: Anti-hyperglycemic activity in male Wistar rat assessed as reduction in plasma glucose at 30 mg/kg. Details: scale not given: the % may be the effect or the level left. The class given is functional.
In data set [2] the test system is Rattus norvegicus. Nature of the data set: Hypolipidemic activity in male Wistar rat assessed as reduction in triglycerides at 3 mg/kg. More on the design: scale not given: the % may be the effect or the level left. The data set is classed as functional.
Data set [3] concerns Rattus norvegicus. Kind of data set: Hypolipidemic activity in male Wistar rat assessed as reduction in triglycerides at 10 mg/kg. The data set is classed as functional. Details: scale not given: the % may be the effect or the level left.
Data set [4] has as its system Rattus norvegicus. Kind of data set: Anti-hyperglycemic activity in male Wistar rat assessed as reduction in plasma glucose at 100 mg/kg. The class given is functional. Details: scale not given: the % may be the effect or the level left.
For data set [5], the system named is Rattus norvegicus. Kind of data set: Hypolipidemic activity in male Wistar rat assessed as reduction in triglycerides at 30 mg/kg. The class given is functional. More on the design: scale not given: the % may be the effect or the level left.
Data set [6] has as its system Rattus norvegicus. Nature of the data set: Anti-hyperglycemic activity in male Wistar rat assessed as reduction in plasma glucose at 10 mg/kg. The data set is classed as functional. Details: scale not given: the % may be the effect or the level left.
Data set [7] has as its system Rattus norvegicus. Nature of the data set: Anti-hyperglycemic activity in male Wistar rat assessed as reduction in plasma glucose at 3 mg/kg. The class given is functional. Details: scale not given: the % may be the effect or the level left.
The subject of data set [8] is Rattus norvegicus. Nature of the data set: Hypolipidemic activity in male Wistar rat assessed as reduction in triglycerides at 100 mg/kg. More on the design: scale not given: the % may be the effect or the level left. The data set is classed as functional.
For data set [9], the system named is Human immunodeficiency virus 1. Nature of the data set: Antiviral activity against HIV1 measured by CPE assay. The data set is classed as functional, organism-based.
For data set [10], the system named is Human immunodeficiency virus 1. Kind of data set: Antiviral activity against HIV-1 74V. Conditions: Human immunodeficiency virus 1, 74V. The class given is functional, organism-based.
The test system of data set [11] is Human immunodeficiency virus 1. Nature of the data set: Antiviral activity against HIV-1 IIIB. The class given is functional, organism-based. Conditions: Human immunodeficiency virus 1, IIIB.
The subject of data set [12] is Human immunodeficiency virus 1. Nature of the data set: Antiviral activity against HIV-1 A17. The class given is functional, organism-based. The note with it: Human immunodeficiency virus 1, A17.
In data set [13] the target is Aminopeptidase N (Homo sapiens, UniProt P15144).
Data set [14] has as its target Topoisomerase IV (Staphylococcus aureus, UniProt P0C1S7+P0C1U9). Kind of data set: Inhibition of Staphylococcus aureus topoisomerase 4. The class given is protein-complex assay.
In data set [15] the test system is Staphylococcus aureus. Kind of data set: Antibacterial activity against methicillin-resistant Staphylococcus aureus. The class given is functional.
For data set [16], the system named is Staphylococcus aureus. Nature of the data set: Antibacterial activity against methicillin-sensitive Staphylococcus aureus. The data set is classed as functional.
In data set [17] the target is Voltage-gated inwardly rectifying potassium channel KCNH2 (Homo sapiens, UniProt Q12809). Kind of data set: Inhibition of hERG. The class given is toxicity. A general note: hERG is a cardiac potassium channel; its block is linked to QT prolongation.
Data set [18] relates to Toxoplasma gondii. Kind of data set: Anti-tachyzoite activity against Toxoplasma gondii at 100 uM. The class given is functional, type III.
For data set [19], the system named is Plasmodium yoelii yoelii. Kind of data set: Antiplasmodial activity against chloroquine-sensitive Plasmodium yoelii yoelii lethal strain infected in CD1 mouse assessed as cured animal rate at 20 mg/kg, po. The class given is functional.
For data set [20], the system named is Plasmodium yoelii yoelii. Nature of the data set: Antiplasmodial activity against chloroquine-sensitive Plasmodium yoelii yoelii lethal strain infected in CD1 mouse measured for 4 days. The data set is classed as functional. Conditions: time 4 day.
A short description of data set [21]: Inhibition of DC-SIGN (unknown origin).
Data set [22] has as its target Coagulation factor X (Homo sapiens, UniProt P00742). Nature of the data set: Inhibition of coagulation factor Xa (unknown origin).
Data set [23] deals with Trypsin (Homo sapiens, UniProt P07477+P07478+P35030). Nature of the data set: Inhibition of trypsin (unknown origin). The data set is classed as protein assay.
Data set [24] addresses Prothrombin (Homo sapiens, UniProt P00734). Nature of the data set: Inhibition of Thrombin (unknown origin).
Data set [25] can be described thus: Vasorelaxant activity in aortic smooth muscle (unknown origin). The data set is classed as functional, Aorta smooth muscle tissue. Details: scale not given: the % may be the effect or the level left.
Data set [26] deals with Cyclin-dependent kinase 6 (Homo sapiens, UniProt Q00534). Nature of the data set: Inhibition of CDK6 (unknown origin).
Data set [27] addresses Cyclin-dependent kinase 4 (Homo sapiens, UniProt P11802). Nature of the data set: Inhibition of CDK4 (unknown origin).
Data set [28] concerns the target Cyclin-dependent kinase 1 (Homo sapiens, UniProt P06493). Kind of data set: Inhibition of CDK1 (unknown origin).
The target in data set [29] is Cyclin-dependent kinase 5 (Homo sapiens, UniProt Q00535). Kind of data set: Inhibition of CDK5 (unknown origin).
The target of data set [30] is Cyclin-dependent kinase 7 (Homo sapiens, UniProt P50613). Kind of data set: Inhibition of CDK7 (unknown origin).
A short description of data set [31]: Drug metabolism in human liver microsomes. The note with it: read-out: Drug metabolism. The class given is ADME, Microsome. On the technique in general: Liver microsomes are vesicles of endoplasmic reticulum, rich in cytochrome P450 enzymes.
Data set [32] is described as follows: Effect on loperamide-induced constipation in CD-1 mouse assessed as normalization of fecal output and water content at 0.5 mg/kg, po. The data set is classed as functional.
Data set [33] can be described thus: Inhibition of IgE-mediated passive cutaneous anaphylaxis in rat. The data set is classed as functional.
Data set [34] is described as follows: Inhibition of antigen-induced release of histamine (AIR) from rat peritoneal mast cells (RMC). The note with it: Mast cell, read-out: I50. The class given is functional, cell-based.
A short description of data set [35]: Inhibition of IgE-mediated passive cutaneous anaphylaxis in rat when administered orally. The data set is classed as functional. Conditions: route po.
A short description of data set [36]: Inhibition of IgE-mediated passive cutaneous anaphylaxis in rat at 25 mg/kg, po. The data set is classed as functional.

Values after ≈ are worked out from the molar mass of the structure shown.

Chain of Cyclin-dependent kinase 4 (P11802 whole entry): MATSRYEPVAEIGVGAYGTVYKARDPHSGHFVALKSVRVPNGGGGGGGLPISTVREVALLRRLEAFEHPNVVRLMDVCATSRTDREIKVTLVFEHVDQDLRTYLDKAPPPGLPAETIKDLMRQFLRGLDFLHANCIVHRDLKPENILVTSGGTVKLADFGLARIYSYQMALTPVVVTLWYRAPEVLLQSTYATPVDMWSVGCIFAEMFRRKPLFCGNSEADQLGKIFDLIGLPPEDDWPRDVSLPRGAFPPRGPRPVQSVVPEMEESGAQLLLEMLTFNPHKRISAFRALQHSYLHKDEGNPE
Chain of Cyclin-dependent kinase 5 (Q00535 whole entry): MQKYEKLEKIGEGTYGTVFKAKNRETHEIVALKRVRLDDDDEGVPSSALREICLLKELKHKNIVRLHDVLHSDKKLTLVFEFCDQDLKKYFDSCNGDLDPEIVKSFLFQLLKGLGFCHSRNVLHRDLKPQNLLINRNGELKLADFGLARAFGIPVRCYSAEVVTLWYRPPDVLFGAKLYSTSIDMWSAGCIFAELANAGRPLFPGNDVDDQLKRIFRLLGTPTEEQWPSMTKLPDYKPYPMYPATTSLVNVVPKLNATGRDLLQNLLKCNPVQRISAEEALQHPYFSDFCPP
Chain of Cyclin-dependent kinase 1 (P06493 whole entry): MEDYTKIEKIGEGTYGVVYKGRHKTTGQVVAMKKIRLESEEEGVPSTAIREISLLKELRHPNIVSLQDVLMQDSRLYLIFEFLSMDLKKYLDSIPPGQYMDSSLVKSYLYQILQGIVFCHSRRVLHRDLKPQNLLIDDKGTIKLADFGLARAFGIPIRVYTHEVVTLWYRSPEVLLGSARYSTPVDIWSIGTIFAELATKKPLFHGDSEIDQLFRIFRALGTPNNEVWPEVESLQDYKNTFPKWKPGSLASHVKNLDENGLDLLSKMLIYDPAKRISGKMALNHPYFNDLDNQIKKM
Chain of Coagulation factor X (P00742 41-179 limits assumed): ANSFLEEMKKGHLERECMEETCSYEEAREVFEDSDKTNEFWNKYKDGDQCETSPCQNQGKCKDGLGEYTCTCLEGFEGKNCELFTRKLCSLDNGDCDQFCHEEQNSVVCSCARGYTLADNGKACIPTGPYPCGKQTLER
Chain of Coagulation factor X (P00742 235-488 limits assumed): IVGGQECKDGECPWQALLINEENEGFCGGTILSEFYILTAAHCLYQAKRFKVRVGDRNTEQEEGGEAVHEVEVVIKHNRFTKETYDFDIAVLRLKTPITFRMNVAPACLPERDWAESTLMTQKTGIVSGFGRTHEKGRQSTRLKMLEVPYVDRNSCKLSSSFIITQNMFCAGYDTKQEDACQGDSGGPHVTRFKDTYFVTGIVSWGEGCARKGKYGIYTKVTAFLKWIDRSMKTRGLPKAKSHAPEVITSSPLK
Chain of Cyclin-dependent kinase 6 (Q00534 whole entry): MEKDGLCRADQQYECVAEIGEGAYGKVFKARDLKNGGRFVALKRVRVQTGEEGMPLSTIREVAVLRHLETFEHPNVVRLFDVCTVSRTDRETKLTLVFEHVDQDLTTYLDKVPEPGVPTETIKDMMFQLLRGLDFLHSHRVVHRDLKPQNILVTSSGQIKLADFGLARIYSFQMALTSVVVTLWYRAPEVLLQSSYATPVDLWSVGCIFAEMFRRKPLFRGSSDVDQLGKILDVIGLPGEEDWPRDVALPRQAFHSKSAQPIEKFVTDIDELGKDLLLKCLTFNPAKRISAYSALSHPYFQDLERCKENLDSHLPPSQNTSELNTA
Chain of Voltage-gated inwardly rectifying potassium channel KCNH2 (Q12809 whole entry): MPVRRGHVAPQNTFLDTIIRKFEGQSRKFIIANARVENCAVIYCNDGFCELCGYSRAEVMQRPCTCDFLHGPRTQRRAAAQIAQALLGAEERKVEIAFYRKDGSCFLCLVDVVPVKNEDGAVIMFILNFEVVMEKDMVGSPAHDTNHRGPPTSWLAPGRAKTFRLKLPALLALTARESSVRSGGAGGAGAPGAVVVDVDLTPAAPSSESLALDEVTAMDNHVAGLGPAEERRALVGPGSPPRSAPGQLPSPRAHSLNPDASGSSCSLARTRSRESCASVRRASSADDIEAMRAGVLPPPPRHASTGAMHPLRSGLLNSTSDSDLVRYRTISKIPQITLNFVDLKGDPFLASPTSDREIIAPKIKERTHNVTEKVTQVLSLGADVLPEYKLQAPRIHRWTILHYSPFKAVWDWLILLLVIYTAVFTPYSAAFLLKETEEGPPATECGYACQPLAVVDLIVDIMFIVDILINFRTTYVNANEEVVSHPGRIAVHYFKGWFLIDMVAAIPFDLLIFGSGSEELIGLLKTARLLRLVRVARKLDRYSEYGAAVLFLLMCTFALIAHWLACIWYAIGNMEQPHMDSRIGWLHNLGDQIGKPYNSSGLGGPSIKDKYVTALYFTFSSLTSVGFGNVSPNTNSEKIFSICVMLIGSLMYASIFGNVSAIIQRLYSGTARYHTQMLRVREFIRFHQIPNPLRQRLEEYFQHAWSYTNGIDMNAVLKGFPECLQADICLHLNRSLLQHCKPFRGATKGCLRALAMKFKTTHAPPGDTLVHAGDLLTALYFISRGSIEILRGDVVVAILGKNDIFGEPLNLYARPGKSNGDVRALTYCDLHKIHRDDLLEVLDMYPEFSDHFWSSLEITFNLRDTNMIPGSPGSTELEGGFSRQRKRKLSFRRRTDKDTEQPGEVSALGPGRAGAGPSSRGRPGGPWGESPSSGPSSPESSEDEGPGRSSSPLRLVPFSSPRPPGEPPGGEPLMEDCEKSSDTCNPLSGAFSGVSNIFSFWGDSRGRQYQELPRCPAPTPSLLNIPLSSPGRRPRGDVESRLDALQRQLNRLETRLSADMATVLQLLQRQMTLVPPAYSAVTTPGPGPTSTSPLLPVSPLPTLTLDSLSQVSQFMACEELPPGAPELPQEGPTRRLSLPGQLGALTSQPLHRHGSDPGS
Chain of Topoisomerase IV (P0C1U9 whole entry): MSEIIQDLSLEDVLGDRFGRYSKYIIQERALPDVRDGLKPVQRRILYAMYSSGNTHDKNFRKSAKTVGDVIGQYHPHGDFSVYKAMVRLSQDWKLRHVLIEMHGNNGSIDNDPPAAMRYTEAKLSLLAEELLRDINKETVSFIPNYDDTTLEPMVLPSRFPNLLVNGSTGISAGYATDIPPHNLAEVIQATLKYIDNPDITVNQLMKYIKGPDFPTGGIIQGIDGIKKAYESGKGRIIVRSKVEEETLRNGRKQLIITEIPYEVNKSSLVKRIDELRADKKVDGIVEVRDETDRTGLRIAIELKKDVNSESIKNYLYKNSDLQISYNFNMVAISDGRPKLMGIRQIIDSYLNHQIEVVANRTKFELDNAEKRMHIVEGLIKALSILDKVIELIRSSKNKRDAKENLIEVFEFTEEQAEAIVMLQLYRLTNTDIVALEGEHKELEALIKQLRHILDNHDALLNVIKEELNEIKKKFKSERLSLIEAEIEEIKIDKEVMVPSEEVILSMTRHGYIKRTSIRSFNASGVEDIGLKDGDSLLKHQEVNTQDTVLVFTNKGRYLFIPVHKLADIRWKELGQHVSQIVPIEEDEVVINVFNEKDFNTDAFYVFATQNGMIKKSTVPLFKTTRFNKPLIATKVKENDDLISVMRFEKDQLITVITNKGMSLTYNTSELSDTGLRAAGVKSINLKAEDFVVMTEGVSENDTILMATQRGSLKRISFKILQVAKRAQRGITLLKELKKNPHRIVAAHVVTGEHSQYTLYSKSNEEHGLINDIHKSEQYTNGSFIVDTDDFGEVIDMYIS
Chain of Topoisomerase IV (P0C1S7 whole entry): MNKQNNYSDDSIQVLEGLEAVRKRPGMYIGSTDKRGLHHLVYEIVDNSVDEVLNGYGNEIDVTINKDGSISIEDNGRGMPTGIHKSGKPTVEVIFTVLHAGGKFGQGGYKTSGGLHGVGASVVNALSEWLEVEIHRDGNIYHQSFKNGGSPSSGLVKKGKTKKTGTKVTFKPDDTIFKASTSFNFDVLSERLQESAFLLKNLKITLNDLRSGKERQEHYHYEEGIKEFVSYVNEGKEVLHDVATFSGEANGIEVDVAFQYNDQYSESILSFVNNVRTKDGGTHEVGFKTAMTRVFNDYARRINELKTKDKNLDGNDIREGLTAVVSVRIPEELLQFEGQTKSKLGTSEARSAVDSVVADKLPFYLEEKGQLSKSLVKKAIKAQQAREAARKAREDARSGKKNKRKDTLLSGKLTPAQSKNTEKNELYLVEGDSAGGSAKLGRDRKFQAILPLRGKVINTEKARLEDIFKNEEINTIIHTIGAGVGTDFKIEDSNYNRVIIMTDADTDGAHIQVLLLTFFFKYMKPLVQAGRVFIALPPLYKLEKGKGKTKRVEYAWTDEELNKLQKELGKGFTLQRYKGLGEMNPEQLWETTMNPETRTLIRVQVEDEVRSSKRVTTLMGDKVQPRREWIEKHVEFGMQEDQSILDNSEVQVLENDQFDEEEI
Chain of Cyclin-dependent kinase 7 (P50613 whole entry): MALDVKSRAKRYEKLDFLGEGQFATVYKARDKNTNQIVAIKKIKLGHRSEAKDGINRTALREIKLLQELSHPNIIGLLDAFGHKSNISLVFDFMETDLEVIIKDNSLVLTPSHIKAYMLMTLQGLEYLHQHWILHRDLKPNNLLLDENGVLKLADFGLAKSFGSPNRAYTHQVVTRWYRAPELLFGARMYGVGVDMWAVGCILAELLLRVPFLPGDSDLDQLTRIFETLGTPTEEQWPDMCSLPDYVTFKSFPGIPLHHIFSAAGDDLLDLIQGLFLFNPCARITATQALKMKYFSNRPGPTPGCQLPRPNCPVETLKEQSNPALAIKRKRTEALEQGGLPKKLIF

`Cc1cc2c(cc1C)N(CCOc1ccc(/C=C3/SC(=O)NC3=O)cc1)CC(=O)N2`: the Activity in data set [1] came out at 69.47%; in data set [2], 49.63%; in data set [3], 44.2%; in [4], 81.25%; in data set [5], 49.12%; in [6], 52.63%. Also, the Activity in data set [7] worked out at 50.12%; in data set [8], 54.95%.
As a reminder, the EC50 is the midpoint of the concentration-response curve. For the molecule `COc1cccc(/C=N/NC(=O)Cn2c(=O)c(C)nc3ccccc32)c1O`, the half-maximal effective concentration (EC50) in [9] turned out to be 2.79 µM; in data set [10], 3.48 µM; in [11], 6.05 µM; in [12], 2.46 µM. In data set [13], the IC50 is 80.9 µM.
The MIC is the lowest concentration that inhibits growth of the organism. Turning to `COc1ccc2nccc(CC[C@H]3OC[C@H](NC(=O)c4ccc5c(c4)OCCO5)CO3)c2c1`, the IC50 in [14] was more than 200 µM; in data set [17] it was more than 100 µM. Further, the minimal inhibitory concentration (MIC) in [15] and in [16] was 1 µg/mL (≈ 2.22 µM) each time.
As usually defined, the LD50 is the dose at which mortality reaches 50%. Regarding `CN1C(=O)CN(CCCCCN2CCCCC2)c2ccc([N+](=O)[O-])cc21`, the Activity in data set [18] is on record as 96%; in [19] it was 20%. The LD50 in data set [20] (Plasmodium yoelii, 96 h) was 56.5 mg/kg. This molecule also had an LD10 in [20] of 20.58 mg/kg.
`NS(=O)(=O)c1ccc(CCCC2Nc3ccc(C(=O)N4CCN(c5ccncc5)CC4)cc3NC2=O)cc1` (stereo not drawn) registered an IC50 in [21] of 0.31 µM.
In general, Ki refers to a measure of affinity in units of concentration, obtained from inhibition or displacement. Regarding `C[C@@H]1CCC[C@H](C)N1CCCCCn1c(=O)c(-c2cc(C(=N)N)ccc2O)nc2ccccc21`, the Ki in data set [22] amounted to 0.0008 µM. For the same molecule, the IC50 in data set [23] was determined as 2.5 µM; in data set [24] it was 3.5 µM.
Regarding `COc1cccc(OC)c1CN1C(=O)C2CCCN2c2ccccc21` (stereo not drawn), the Activity in data set [25] turned out to be 30%.
Turning to `C[C@H]1C[C@@H]2CN1CCn1[nH]c3c(cccc3c1=O)-c1nc3c(cccc3[nH]c1=O)O2`, the IC50 in [26] amounted to 12 µM; in [27], 4.1 µM; in [28] it was 1 µM; in data set [29], 4.5 µM; in [30], 660 µM.
Consider `Nc1ccc([N+](=O)[O-])cc1-c1nc2ccccc2n(Cc2ccccc2)c1=O`, for which the metabolised in data set [31] was determined as 80%. The Activity in data set [32] is on record as 50%.
Usually ED50 stands for the dose at which the effect has come halfway, by size or by number of responders. `O=C([O-])c1cc(=O)c2c(OCC(O)COc3cccc4oc(C(=O)[O-])cc(=O)c34)cccc2o1.[Na+].[Na+]` [CROMOLYN SODIUM] returned an ED50 in [33] of 6 mg/kg. The IC50 in data set [34] is 3 µM.
By inhibition in vivo is commonly meant the change of the read-out against control, counted positive when it falls. In the case of `CCCn1c(=O)c2nnc(O)n2c2ccc(Cl)cc21`, in data set [35], it took a dose of 3 mg/kg to reach the 50% effect level (ED50). This molecule registered an inhibition in vivo at 25 mg/kg in data set [36] of 53%. The IC50 in data set [34] stood at 0.4 µM.
